According to patent EP0511845B1, “Pesticidal 1-aryl-5-(substituted alkylideneimino)-pyrazoles” (AVENTIS CROPSCIENCE S.A., priority 1991, dated 1992):

Legend:
Assay type in all cases: in vivo
Spodoptera eridania [1] = assay: Southern armyworm on cotton - systemic evaluation (soil drench); conditions: systemic via root uptake; for control of southern armyworm at thirteen days: plant not repeated, follows the cotton clause; for control of southern armyworm at six days on cotton: 20 ppm soil concentration dose (and subsequent dilutions)
Experimental: (§1) Cotton aphid and southern armyworm (on cotton) and greenbug and southern armyworm (on sorghum) - systemic evaluation: A stock solution or suspension was prepared to deliver 5 ml of a 20 ppm soil concentration dose (and subsequent dilutions) as a drench to 6 cm pots containing cotton and sorghum plants. The cotton plants were previously infested with cotton aphids about two days before treatment and greenbug one day before treatment. After holding the plants about three days, the plants were rated for aphid activity. Again at six days, the plants were rated for aphid activity and the cotton aphids and greenbugs were counted and mortality was assessed. Portions of the cotton and sorghum foliage were excised, placed in separate plastic containers, and infested with second instar larvae of southern armyworms. The potted plants were dipped in sulfotepp to kill the remaining aphids and returned to the greenhouse for regrowth. Thirteen days after treatment the remaining foliage was excised and fed to southern armyworm. Mortality was assessed six days after infestation.

Spodoptera eridania [2] = assay: Southern armyworm on sorghum - systemic evaluation (soil drench); conditions: systemic via root uptake; for control of southern armyworm after six days on sorghum: 20 ppm soil concentration dose (and subsequent dilutions); for control of southern armyworm at thirteen days (sorghum): on sorghum
Experimental: as §1

Heliothis virescens [3] = assay: Tobacco budworm on sorghum - systemic evaluation (soil drench); conditions: systemic via root uptake, 10.0 ppm soil concentration
Experimental: (§2) For southern root-knot nematod and systemic tests for southern armyworm, cotton aphid, tobacco budworm and greenbug, a stock solution or suspension was prepared by adding 15 mg of the test compound to 250 mg of dimethylformamide, 1250 mg of acetone and 3 mg of the emulsifier blend referenced above. Water was then added to provide a test compound concentration of 150 ppm. When necessary, sonication was provided to insure complete dispersion. Cotton aphid and tobacco budworm (on cotton) and greenbug and tobacco budworm (on sorghum) - systemic evaluation: A 7.0 ml aliquot of the 150 ppm nematode test solution was applied to deliver the equivalent of 10.0 ppm soil concentration dose as a drench to 6 cm pots containing cotton and sorghum plants. The cotton plants were previously infested with cotton aphids about two days before treatment and greenbug one day before treatment. After holding the plants about three days, the plants were rated for aphid activity. Again at six days, the plants were rated for aphid activity and the cotton aphids and greenbugs were counted and mortality was assessed. Portions of the cotton and sorghum foliage were excised, placed in separate plastic containers, and infested with second instar larvae of tobacco budworm. The potted plants were dipped in sulfotepp to kill the remaining aphids and returned to the greenhouse for regrowth. Thirteen days after treatment, the remaining foliage was excised and fed to tobacco budworms. Mortality was assessed six days after infestation.

Aphis gossypii = assay: Cotton aphid on cotton - systemic evaluation (soil drench); conditions: systemic via root uptake, soil drench at soil concentrations of the protocols (10.0 or 20 ppm)
Experimental: as §2, with “infestation. Cotton aphid and southern armyworm (on cotton) and greenbug and southern armyworm (on sorghum) - systemic evaluation: A stock solution or suspension was prepared to deliver 5 ml of a 20 ppm soil concentration dose (and subsequent dilutions) as a drench to 6 cm pots containing cotton and sorghum plants. The cotton plants were previously infested with cotton aphids about two days before treatment and greenbug one day before treatment. After holding the plants about three days, the plants were rated for aphid activity. Again at six days, the plants were rated for aphid activity and the cotton aphids and greenbugs were counted and mortality was assessed. Portions of the cotton and sorghum foliage were excised, placed in separate plastic containers, and infested with second instar larvae of southern armyworms. The potted plants were dipped in sulfotepp to kill the remaining aphids and returned to the greenhouse for regrowth. Thirteen days after treatment the remaining foliage was excised and fed to southern armyworm. Mortality was assessed six days after infestation.” for “infestation.”

Schizaphis graminum = assay: Greenbug on sorghum - systemic evaluation (soil drench); conditions: systemic via root uptake, soil drench at soil concentrations of the protocols (10.0 or 20 ppm)
Experimental: as §2, with “infestation. Cotton aphid and southern armyworm (on cotton) and greenbug and southern armyworm (on sorghum) - systemic evaluation: A stock solution or suspension was prepared to deliver 5 ml of a 20 ppm soil concentration dose (and subsequent dilutions) as a drench to 6 cm pots containing cotton and sorghum plants. The cotton plants were previously infested with cotton aphids about two days before treatment and greenbug one day before treatment. After holding the plants about three days, the plants were rated for aphid activity. Again at six days, the plants were rated for aphid activity and the cotton aphids and greenbugs were counted and mortality was assessed. Portions of the cotton and sorghum foliage were excised, placed in separate plastic containers, and infested with second instar larvae of southern armyworms. The potted plants were dipped in sulfotepp to kill the remaining aphids and returned to the greenhouse for regrowth. Thirteen days after treatment the remaining foliage was excised and fed to southern armyworm. Mortality was assessed six days after infestation.” for “infestation.”

Heliothis virescens [4] = assay: Tobacco budworm - contact evaluation (topical application); conditions: topical or contact tests; application dose of 63 µg/g body weight
Experimental: For tobacco budworm contact tests, a stock solution was prepared by dissolving the compound in acetone and then further diluted to provide the required serial dilution concentrations.
Tobacco budworm - contact evaluation: The following topical application method provides an assessment of contact toxicity of a compound to tobacco budworm larvae The test compound solution at sequential two-fold dilution concentrations from 10 down to 0.16 µg/µl was applied by a microinjector in repli cated 1 µl portions to the dorsum of approximately 20 mg tobacco budworm larvae. This is equivalent to applied doses of 500 down to 8 µg/g body weight. An acetone treated control, without any test compounds, as also applied. A treated control with a commercial technical compound, cypermethrin or thiodicarb, also in acetone was used as a standard. The treated larvae were placed, individually, in separate plastic petri dishes containing an untreated cotton leaf and a moist dental wick. The treated larvae were maintained at about 27°C and 50% relative humidity. The percent mortality was rated 1 and 4 days after treatment.

CC(C)(C)c1cc(C=Nc2c(SC(F)(F)F)c(C#N)nn2-c2c(Cl)cc(C(F)(F)F)cc2Cl)cc(C(C)(C)C)c1O [compound 64]
control of southern armyworm at thirteen days (Spodoptera eridania [1]): 30-100%

N#Cc1nn(-c2c(Cl)cc(C(F)(F)F)cc2Cl)c(N=Cc2ccc(O)c(Br)c2)c1SC(F)(F)F [compound 100]
control of southern armyworm after six days on sorghum (Spodoptera eridania [2]): 30-100%

N#Cc1nn(-c2c(Cl)cc(C(F)(F)F)cc2Cl)c(N=Cc2ccncc2)c1SC(F)(F)F [compound 16, 1-(2,6-dichloro-4-trifluoromethylphenyl)-3-cyano-4-trifluoromethylsulfenyl-5-[(4-pyridyl)-methylideneimino]pyrazole]
control of tobacco budworm after six days on sorghum (Heliothis virescens [3]): 100%
control of cotton aphid after six days on cotton (Aphis gossypii): 30-100%
control of greenbug after six days on sorghum (Schizaphis graminum): 30-100%

CSc1c(C#N)nn(-c2c(Cl)cc(C(F)(F)F)cc2Cl)c1N=Cc1ccc(O)cc1 [compound 111]
control of cotton aphid after six days on cotton (Aphis gossypii): 30-100%
control of greenbug after six days on sorghum (Schizaphis graminum): 30-100%

COc1ccc(C=Nc2c(SC(F)(F)F)c(C#N)nn2-c2c(Cl)cc(C(F)(F)F)cc2Cl)cc1 [compound 21]
control of greenbug after six days on sorghum (Schizaphis graminum): 30-100%

CCOc1cc(C=Nc2c(S(=O)(=O)C(F)(F)F)c(C#N)nn2-c2c(Cl)cc(C(F)(F)F)cc2Cl)ccc1O [compound 61]
control of tobacco budworm (TBW) (Heliothis virescens [4]): 50-100%

COc1cc(C=Nc2c(SC(F)(F)F)c(C#N)nn2-c2c(Cl)cc(C(F)(F)F)cc2Cl)cc(OC)c1O [compound 13, 1-(2,6-dichloro-4-trifluoromethylphenyl)-3-cyano-4-trifluoromethylsulfenyl-5-[(3,5-dimethoxy-4-hydroxyphenyl)methylideneimino]pyrazole]
control of tobacco budworm (TBW) (Heliothis virescens [4]): 50-100%
control of cotton aphid after six days on cotton (Aphis gossypii): 30-100%

COc1cc(O)c(C=Nc2c(S(=O)(=O)C(F)(F)F)c(C#N)nn2-c2c(Cl)cc(C(F)(F)F)cc2Cl)c(OC)c1 [compound 72]
control of southern armyworm after six days on sorghum (Spodoptera eridania [2]): 30-100%

COc1cc(C=Nc2c(SC)c(C#N)nn2-c2c(Cl)cc(C(F)(F)F)cc2Cl)ccc1O [compound 110]
control of southern armyworm at thirteen days (sorghum) (Spodoptera eridania [2]): 70-100%
control of cotton aphid after six days on cotton (Aphis gossypii): 30-100%
control of greenbug after six days on sorghum (Schizaphis graminum): 30-100%
control of southern armyworm at thirteen days (Spodoptera eridania [1]): 30-100%

CCCCCCCC(=O)Oc1ccc(C=Nc2c(SC(F)(F)F)c(C#N)nn2-c2c(Cl)cc(C(F)(F)F)cc2Cl)cc1OC [compound 121]
control of southern armyworm after six days on sorghum (Spodoptera eridania [2]): 30-100%

COc1ccccc1C=Nc1c(SC(F)(F)F)c(C#N)nn1-c1c(Cl)cc(C(F)(F)F)cc1Cl [compound 113]
control of southern armyworm at six days on cotton (Spodoptera eridania [1]): 30-100%

N#Cc1cccc(C=Nc2c(SC(F)(F)F)c(C#N)nn2-c2c(Cl)cc(C(F)(F)F)cc2Cl)c1 [compound 116]
control of tobacco budworm (TBW) (Heliothis virescens [4]): 50-100%

N#Cc1nn(-c2c(Cl)cc(C(F)(F)F)cc2Cl)c(N=Cc2ccco2)c1SC(F)(F)F [compound 20]
control of tobacco budworm after six days on sorghum (Heliothis virescens [3]): 100%
control of greenbug after six days on sorghum (Schizaphis graminum): 30-100%

COc1cc(C=Nc2c(SC(F)(F)F)c(C#N)nn2-c2c(Cl)cc(C(F)(F)F)cc2Cl)cc(Br)c1O [compound 42]
control of tobacco budworm (TBW) (Heliothis virescens [4]): 50-100%

COc1cc(C=Nc2c(SC(F)(F)F)c(C#N)nn2-c2c(Cl)cc(C(F)(F)F)cc2Cl)cc([N+](=O)[O-])c1O [compound 74]
control of greenbug after six days on sorghum (Schizaphis graminum): 30-100%

N#Cc1nn(-c2c(Cl)cc(C(F)(F)F)cc2Cl)c(N=Cc2ncc[nH]2)c1SC(F)(F)F [compound 115]
control of southern armyworm after six days on sorghum (Spodoptera eridania [2]): 30-100%

COc1cc(C=Nc2c(SC(F)(F)F)c(C#N)nn2-c2c(Cl)cc(C(F)(F)F)cc2Cl)ccc1OC(C)=O [compound 69]
control of southern armyworm after six days on sorghum (Spodoptera eridania [2]): 30-100%
control of tobacco budworm (TBW) (Heliothis virescens [4]): 50-100%
control of southern armyworm at six days on cotton (Spodoptera eridania [1]): 30-100%

COc1cc(C=Nc2c(SC(F)(F)F)c(C#N)nn2-c2c(Cl)cc(C(F)(F)F)cc2Cl)cc(O)c1OC [compound 59]
control of tobacco budworm (TBW) (Heliothis virescens [4]): 50-100%

N#Cc1nn(-c2c(Cl)cc(C(F)(F)F)cc2Cl)c(N=Cc2cc[n+]([O-])cc2)c1S(=O)(=O)C(F)(F)F [compound 68]
control of southern armyworm at thirteen days (Spodoptera eridania [1]): 30-100%

Cc1cc(C=Nc2c(S(=O)(=O)C(F)(F)F)c(C#N)nn2-c2c(Cl)cc(C(F)(F)F)cc2Cl)ccc1O [compound 66]
control of southern armyworm at thirteen days (sorghum) (Spodoptera eridania [2]): 70-100%

COc1cc(C=Nc2c(SC(F)(F)F)c(C#N)nn2-c2ncc(C(F)(F)F)cc2Cl)ccc1O [compound 87]
control of greenbug after six days on sorghum (Schizaphis graminum): 30-100%

COc1cc(C=Nc2c(SC(F)(F)F)c(C#N)nn2-c2c(Cl)cc(C(F)(F)F)cc2Cl)ccc1OCc1ccccc1 [compound 120]
control of southern armyworm at six days on cotton (Spodoptera eridania [1]): 30-100%

Cc1cc(C=Nc2c(SC(F)(F)Cl)c(C#N)nn2-c2c(Cl)cc(C(F)(F)F)cc2Cl)cc(C)c1O [compound 80]
control of tobacco budworm (TBW) (Heliothis virescens [4]): 50-100%

COc1ccc(C=Nc2c(S(=O)(=O)C(F)(F)F)c(C#N)nn2-c2c(Cl)cc(C(F)(F)F)cc2Cl)cc1O [compound 65]
control of southern armyworm at thirteen days (sorghum) (Spodoptera eridania [2]): 70-100%
control of southern armyworm at thirteen days (Spodoptera eridania [1]): 30-100%

COc1cccc(C=Nc2c(SC(F)(F)F)c(C#N)nn2-c2c(Cl)cc(C(F)(F)F)cc2Cl)c1O [compound 50]
control of tobacco budworm (TBW) (Heliothis virescens [4]): 50-100%

CCN(CC)c1ccc(C=Nc2c(SC(F)(F)F)c(C#N)nn2-c2c(Cl)cc(C(F)(F)F)cc2Cl)c(O)c1 [compound 117]
control of southern armyworm at thirteen days (sorghum) (Spodoptera eridania [2]): 70-100%

N#Cc1nn(-c2c(Cl)cc(C(F)(F)F)cc2Cl)c(N=Cc2cc(O)c(O)c(Br)c2)c1SC(F)(F)F [compound 93]
control of greenbug after six days on sorghum (Schizaphis graminum): 30-100%

COc1ccc(C=Nc2c(SC(F)(F)Cl)c(C#N)nn2-c2c(Cl)cc(C(F)(F)F)cc2Cl)cc1O [compound 81]
control of tobacco budworm (TBW) (Heliothis virescens [4]): 50-100%

N#Cc1nn(-c2c(Cl)cc(C(F)(F)F)cc2Cl)c(N=Cc2ccc(O)cc2)c1SC(F)(F)F [compound 4, 1-(2,6-dichloro-4-trifluoromethylphenyl]-3-cyano-4-trifluoromethylsulfenyl-5-[(4-hydroxyphenyl]methylideneimino]pyrazole]
control of greenbug after six days on sorghum (Schizaphis graminum): 30-100%

N#Cc1nn(-c2c(Cl)cc(C(F)(F)F)cc2Cl)c(N=Cc2cc(C(F)(F)F)cc(C(F)(F)F)c2)c1SC(F)(F)F [compound 112]
control of cotton aphid after six days on cotton (Aphis gossypii): 30-100%
control of greenbug after six days on sorghum (Schizaphis graminum): 30-100%
